Experiment [1] is filed under the species Homo sapiens. Kind of experiment: Stabilization effect on human telomeric DNA assessed as differential melting temperature by DSC assay.
Experiment [2] is filed under the species Homo sapiens. Kind of experiment: Stabilization effect on human telomeric DNA assessed as differential melting temperature by FRET assay.
Experiment [3] is described as follows: Binding affinity to human telomeric DNA.
Experiment [4] is filed under the species Homo sapiens. Description: Stabilization effect on human telomeric DNA assessed as differential melting temperature in the presence of double strand DNA by FRET assay.
A short description of experiment [5]: Binding affinity to hairpin DNA. Details: species or system Homo sapiens.
Experiment [6] can be described thus: Cell cycle arrest in […] cells assessed as accumulation at Sub G1 phase at 75 uM. In kind it is functional, cell-based. Conditions: Homo sapiens.
The species entered for experiment [7] is Homo sapiens. Description: Inhibition of telomerase extension activity at 50 uM by PCR based TRAP assay.
Experiment [8] is described as follows: Cell cycle arrest in […] cells assessed as accumulation at G2/M phase at 75 uM. The note with it: Homo sapiens. It is filed as functional, cell-based.
A short description of experiment [9]: Cytotoxicity against […] cells by MTT assay. In kind it is functional, cell-based. Conditions: Homo sapiens. For orientation: Tetrazolium dyes change colour on reduction, which living cells bring about.
The nature of experiment [10]: Cell cycle arrest in […] cells assessed as accumulation at G2/M phase at 300 uM. It is filed as functional, cell-based. Conditions: Homo sapiens.
A short description of experiment [11]: Cell cycle arrest in […] cells assessed as accumulation at Sub G1 phase at 300 uM. The note with it: Homo sapiens. It is filed as functional, cell-based.
Experiment [12] is described as follows: Cell cycle arrest in […] cells assessed as accumulation at G1 phase at 300 uM. Conditions: Homo sapiens. It is filed as functional, cell-based.
Experiment [13] can be described thus: Cell cycle arrest in […] cells assessed as accumulation at S phase at 75 uM. The note with it: Homo sapiens. In kind it is functional, cell-based.
The nature of experiment [14]: Cell cycle arrest in […] cells assessed as accumulation at G1 phase at 75 uM. In kind it is functional, cell-based. Conditions: Homo sapiens.
Experiment [15] is described as follows: Cell cycle arrest in […] cells assessed as accumulation at S phase at 300 uM. Conditions: Homo sapiens. It is filed as functional, cell-based.

Active and inactive are the calls of the source. The rule behind the calls is not given here.

The term ΔTm denotes the shift of the melting midpoint relative to a reference. A word on the Kd: it is a measure of binding affinity in units of concentration. Higher therefore signals a looser complex. Regarding `NCc1cc2oc1CNC(=O)C1=CC=C(CNC(=O)C3=CC=C(CNC2=O)O3)O1`, the shift in melting temperature (ΔTm) in the experiment filed under Homo sapiens [1] is 2 °C; in the experiment filed under Homo sapiens [2], 9 °C; in the experiment listed under Homo sapiens [4], 7 °C. Besides, the Kd was determined as 29 µM in experiment [3] and 950 µM in experiment [5].

Broadly, the IC50 is the midpoint of a concentration-inhibition curve. A high value points to weaker potency. `NCC1=C2CNC(=O)C3=CC=C(CNC(=O)c4cc(CN)c(o4)CNC(=O)C4=CC=C(CNC(=O)C(=C1)O2)O4)O3`: the Activity was found to be 47% in experiment [6]; 18.8% in experiment [8]; 5.5% in experiment [10]; 49% in experiment [11]; 39% in experiment [12]; 8.8% in experiment [13]. The Activity in experiment [14] was 23.5%; in experiment [15] it was 4.8%. In addition, the outcome in the experiment listed under Homo sapiens [7] was Active. Moreover, the ΔTm in the experiment filed under Homo sapiens [1] amounted to 6.6 °C; in the experiment listed under Homo sapiens [2], 12 °C; in the experiment listed under Homo sapiens [4] it was 12 °C. This compound also yielded an IC50 in [9] of 500 µM. In experiment [3], this compound gave a Kd of 14.5 µM.

Consider `NCCC(=O)NCC1=C2CNC(=O)C3=CC=C(CNC(=O)c4cc(CNC(=O)CCN)c(o4)CNC(=O)C4=CC=C(CNC(=O)C(=C1)O2)O4)O3`, for which the Activity was determined as 46% in [6]; 11.5% in experiment [8]; 4.8% in experiment [10]; 48.5% in experiment [11]; 41.4% in [12]; 7% in [13]. Further, the values for the Activity in experiment [14] and in experiment [15] were 31.5% and 4.2%, respectively. Besides, the result in the experiment listed under Homo sapiens [7] was Active. Also, the shift in melting temperature (ΔTm) came to 9.2 °C in the experiment listed under Homo sapiens [1], 17 °C in the experiment filed under Homo sapiens [2] and 17 °C in the experiment listed under Homo sapiens [4]. In experiment [9], this compound returned a half-inhibitory concentration (IC50) of 500 µM. Further, the affinity in [3], expressed as Kd, was 3.1 µM.

With `NCCC(=O)NCc1cc2oc1CNC(=O)C1=CC=C(CNC(=O)C3=CC=C(CNC2=O)O3)O1`, the figures for the ΔTm in the experiment listed under Homo sapiens [1], in the experiment listed under Homo sapiens [2] and in the experiment filed under Homo sapiens [4] were 3 °C, 10 °C and 7 °C, respectively. The Kd in [3] was determined as 21 µM; in experiment [5], 700 µM.

For the origin of these results see ChEMBL document CHEMBL1137612, “Furan based cyclic oligopeptides selectively target G-quadruplex” (J Med Chem, 2007).
